IC50 data for 1 molecule are collected here from US7407960B2, “Substituted heterocyclic compounds” (CV Therapeutics, Inc., priority 2002, dated 2008).

For the assay, the system named is Palmitoyl CoA oxidation. Nature of the assay: Palmitoyl CoA oxidation in isolated rat heart mitochondria. As to conditions: 1-C14 palmitoyl CoA, 15 min at 30° C., read-out: PalmCoA IC50. It is filed as biochemical. The procedure: Rat heart mitochondria were isolated by the method of Nedergard and Cannon (Methods in Enzymol. 55, 3, 1979).
Palmitoyl CoA oxidation—The Palmityl CoA oxidation was carried out in a total volume of 100 micro liters containing the following agents: 110 mM KCl, 33 mM Tris buffer at pH 8, 2 mM KPi, 2 mM MgCl2, 0.1 mM EDTA, 14.7 microM defatted BSA, 0.5 mM malic acid, 13 mM carnitine, 1 mM ADP, 52 micrograms of mitochondrial protein, and 16 microM 1-C14 palmitoyl CoA (Sp. Activity 60 mCi/mmole; 20 microCi/ml, using 5 microliters per assay). The compounds of this invention were added in a DMSO solution at the following concentrations: 100 micro molar, 30 micro molar, and 3 micro molar. In each assay, a DMSO control was used. After 15 min at 30° C., the enzymatic reaction was centrifuged (20,000 g for 1 min), and 70 microliters of the supernatant was added to an activated reverse phase silicic acid column (approximately 0.5 ml of silicic acid). The column was eluted with 2 ml of water, and 0.5 ml of the eluent was used for scintillation counting to determine the amount of C^14 trapped as C^14 bicarbonate ion.

SMILES strings stand for the structures.

On to `Cc1nc2cc(OC[C@H](O)CN3CCN(CC(=O)Nc4cccc5c4CCC5)CC3)ccc2s1` [2-{4-[(2R)-2-hydroxy-3-(2-methylbenzothiazol-5-yloxy)propyl]piperazinyl}-N-indan-4-ylacetamide], for which the IC50 is 0.15 µM.

As a reminder, the IC50 is the concentration that inhibits the measured activity by half.
